Experimental data reported in patent US20230417738A1, “Mass Spectrometric Determination of Cell Toxicity” (Bruker Daltonics GmbH & Co. KG, priority 2022, published 2023).

System: cells of the human continuous cell line A549
Type: cell-based
Settings: 24 h
Source text: The mass spectrometer 101 used was a non-spatial-resolution MALDI-ToF. Also, the matrix 29 was not true-to-position applied. Thus, the mass spectra 20 represent sum spectra of an entire sample spot 16 and have not been generated according to the invention. In addition, the mass spectra 20 are not spatially resolved. It is intended here, among other things, to clarify the cell-specific mass spectrometric signals 40, the cell-specific mass spectrometric signatures 41, the non-cell-specific mass spectrometric signals 55 and a possible determination of reference values. In particular, the mass spectrum 20 in FIG. 11 (b) is only an approximate example here, since a small residual number of animal cells 23, which were already present before the cultivation step S2 (cell seed), can generate largely weak cell-specific mass spectrometric signals 40. […] The animal cells 23 are cells of the continuous human cell line A549. The complex culture medium DMEN with 10% fetal calf serum (FCS) was used as culture medium. […]
The animal cells 23 are also cells of the human continuous cell line A549. […] Since this example is a sum mass spectrum of the entire sample spot 16 not according to the invention, sporadic weak cell-specific mass spectrometric signals 40 may be detected in this example, which are largely absent when using a spatial resolution mass spectrometer 1. […]

CCCCCCCCCCCCCC[N+](C)(C)C.[Cl-] [tetradecyltrimethylammonium chloride]
proliferation of the animal cells in the presence of the cytotoxic factor: no proliferation of the animal cells 23 occurred
